We go through 22 compounds from patent publication US8461128B2, “Anti-microbial agents and uses thereof” (priority 2005, dated 2013).

The IC50 is the concentration that gives 50% inhibition. The Km is the substrate concentration at which the rate is half of its maximum. As usually defined, the Kd is the concentration at which binding is half-saturated. The Ki is a measure of affinity in units of concentration, obtained from inhibition or displacement.

Values after ≈ are worked out from the molar mass of the structure shown. Values joined by “and” are separate entries in the source; they are usually repeats but may differ in a detail not shown here. Equal entries are not always repeated. Where two headings read alike, the source gives them in different places. Bounds are passed on as bounds.

The target of data set [1] is T1, YbtE (Yersinia pestis, UniProt Q56950). Kind of data set: biochemical. Type of data set: biochemical.
The test system of the next data set is Y. pestis KIM6-2082.1+. Kind of data set: microbe, parasite or virus in culture. Type of data set: cell-based, Yersinia pestis.
The next data set relates to M. tuberculosis H37Rv. Put plainly: microbe, parasite or virus in culture. Type of data set: cell-based, Mycobacterium tuberculosis.
Data set [2] concerns the target T1, YbtE. Kind of data set: biochemical.
For data set [3], the target named is T1, YbtE. The settings on record: cited from earlier work.
Data set [4] has as its system MBT production in M. tuberculosis. Format: cell-based, Mycobacterium tuberculosis.
The nature of data set [5]: Isotopic stability in D2O (NMR). As to conditions: room temperature. Format: physicochemical.
For another data set, the system named is 92 Y. pestis strains. The settings on record: cited from earlier work.
Data set [6] relates to M. tuberculosis H37Rv reference strain. As to conditions: Wanger et al. 1996; cited from earlier work.
Where [7] appears, read: Mycobacterium tuberculosis, H37RV.

T1 sequence (Q56950 1-525): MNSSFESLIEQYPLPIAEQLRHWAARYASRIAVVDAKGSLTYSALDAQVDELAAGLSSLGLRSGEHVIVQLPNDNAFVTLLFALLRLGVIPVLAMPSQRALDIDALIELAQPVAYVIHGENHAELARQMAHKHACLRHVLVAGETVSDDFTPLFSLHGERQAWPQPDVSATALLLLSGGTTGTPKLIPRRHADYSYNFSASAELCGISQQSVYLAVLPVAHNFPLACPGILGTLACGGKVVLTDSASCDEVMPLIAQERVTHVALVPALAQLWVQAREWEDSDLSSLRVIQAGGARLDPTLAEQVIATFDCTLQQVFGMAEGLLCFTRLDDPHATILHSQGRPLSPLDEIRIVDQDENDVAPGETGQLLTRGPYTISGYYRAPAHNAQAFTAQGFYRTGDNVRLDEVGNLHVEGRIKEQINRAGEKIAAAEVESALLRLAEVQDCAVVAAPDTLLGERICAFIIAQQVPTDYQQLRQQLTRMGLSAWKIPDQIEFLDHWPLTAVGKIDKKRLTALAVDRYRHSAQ

In the case of `CC(=O)Oc1ccccc1C(=O)NS(=O)(=O)OC[C@H]1O[C@@H](n2ccc3ccccc32)[C@H](OC(C)=O)[C@@H]1OC(C)=O` [2′,2″,3′-triacetylsalicyl-IRMS], the IC50 was 1.8 µM against YbtE [1] (IC50); 25 µM and 22 µM and 33 µM and 31 µM and 35 µM in the data set with M. tuberculosis H37Rv; 24 µM in the data set on M. tuberculosis H37Rv (setting [7]). Also, the MIC90 in the data set with Y. pestis KIM6-2082.1+ (Yersinia pestis) is about 500 µM (≈ 287 µg/mL); with M. tuberculosis H37Rv (setting [7]), about 50 µM (≈ 28.7 µg/mL).
In the case of `Nc1ncnc2c1ncn2[C@@H]1O[C@H](COP(=O)(O)OP(=O)(O)OP(=O)(O)O)[C@@H](O)[C@H]1O` [ATP], the values for the Michaelis-Menten constant (Km) on YbtE [2] (read-out: Km ATP) and on YbtE [3] (read-out: Km ATP) were 172 µM and 350 µM, respectively.
The compound `Nc1ncnc2c1nc1n2[C@@H]2O[C@H](COS(=O)(=O)NC(=O)CCCC#C1)[C@@H](O)[C@H]2O` [cyclo-hexynoyl-AMS] registered an IC50 against YbtE [1] (IC50) of over 40 µM.
The compound `NS(=O)(=O)OC[C@H]1O[C@@H](n2ccc3ccccc32)[C@H](O)[C@@H]1O` [IRMS] showed an IC50 against YbtE [1] (IC50) of over 20 µM. In the data set with M. tuberculosis H37Rv (setting [7]), this compound gave an IC50 of over 200 µM and an MIC90 of over 200 µM.
In the case of `Nc1ncnc2c1ncn2[C@H]1CC[C@@H](COS(=O)(=O)NC(=O)c2ccccc2O)O1` [salicyl-ddAMS], the MIC90 against M. tuberculosis H37Rv (setting [7]) is about 200 µM (≈ 86.9 µg/mL).
On to `NNC(=O)c1ccncc1` [isoniazid, reference compound], for which, in the data set with M. tuberculosis H37Rv, the IC50 is 0.11 µM and 0.08 µM and 0.1 µM; the MIC90 amounted to 0.16 µM (≈ 0.0219 µg/mL). In the data set on M. tuberculosis H37Rv (setting [7]), this compound registered an IC50 of 0.12 µM and an MIC90 of 0.2 µM (≈ 0.0274 µg/mL).
For the compound `CC(OS(=O)(=O)NC(=O)c1ccccc1O)[C@H]1O[C@@H](n2cnc3c(N)ncnc32)[C@H](O)[C@@H]1O` (mixture of isomers) [(RS)-5′-methyl-salicyl-AMS], the IC50 against YbtE [1] (IC50) was determined as 0.009 µM.
On the same count and under the same terms, to `Nc1ncnc2c1nc1n2[C@@H]2O[C@H](COS(=O)(=O)NC(=O)CCCCC1)[C@@H](O)[C@H]2O` [cyclo-hexanoyl-AMS] belongs over 40 µM.
On to `Nc1ncnc2c1ncn2[C@@H]1O[C@H](COS(N)(=O)=O)[C@@H](O)[C@H]1O` [AMS, 5′-O-Sulfamoyladenosine, reference compound], for which the inhibition of adenylation entry at YbtE [2] is listed as “did not inhibit adenylation”. Besides, on YbtE [1], the inhibition of salicylation result is reported as “did not inhibit salicylation”. In the data set on M. tuberculosis H37Rv, the IC50 is 39 µM and 43 µM and 55 µM. Besides, in the data set on M. tuberculosis H37Rv (setting [7]), it took 35 µM to reach half-maximal inhibition (IC50) and the MIC90 is about 100 µM (≈ 34.6 µg/mL).
As to `O=C(NS(=O)(=O)OC[C@H]1O[C@@H](n2ccc3ccccc32)[C@H](O)[C@@H]1O)c1ccccc1O` [salicyl-IRMS, β-indolyl 5′-O—(N-salicylsulfamoyl)ribose], the IC50 against YbtE [1] (IC50) is 0.021 µM; with Y. pestis KIM6-2082.1+ (Yersinia pestis), over 500 µM; with M. tuberculosis H37Rv (setting [7]) it was over 200 µM. Moreover, the MIC90 with Y. pestis KIM6-2082.1+ (Yersinia pestis) was over 500 µM; against M. tuberculosis H37Rv (setting [7]) it was over 200 µM.
As to `Nc1ncnc2c1ncn2[C@@H]1O[C@H](COS(=O)(=O)NC(=O)c2ccccc2)[C@@H](O)[C@H]1O` [benzoyl-AMS], the IC50 on YbtE [1] (IC50) was 0.004 µM and 0.012 µM; with Y. pestis KIM6-2082.1+ it was 500 µM; with M. tuberculosis H37Rv, 105 µM and 133 µM. For the same compound, the MIC90 against Y. pestis KIM6-2082.1+ (Yersinia pestis) is over 500 µM; in the data set with M. tuberculosis H37Rv (setting [7]), over 200 µM.
For `Nc1ccc(C(=O)O)c(O)c1` [p-aminosalicylic acid, reference compound], in the data set with M. tuberculosis H37Rv, the IC50 came to 0.08 µM and the iron-deficient media selectivity entry was “do not exhibit iron-deficient media selectivity”. In the data set on M. tuberculosis H37Rv (setting [7]), this compound registered a concentration for half-maximal inhibition (IC50) of 0.09 µM and an MIC90 of 0.78 µM (≈ 0.119 µg/mL).
Turning to `O=C(O)c1ccccc1O` [salicylate], the Km was 5.4 µM on YbtE [2] (read-out: Km salicylate) and 4.6 µM on YbtE [3] (read-out: Km salicylate).
As for `Nc1ncnc2c1ncn2[C@H]1C[C@H](O)[C@@H](COS(=O)(=O)NC(=O)c2ccccc2O)O1` [salicyl-dAMS], the IC50 at YbtE [1] (IC50) is 0.008 µM and 0.014 µM.
On YbtE [1] (IC50), `CC(=O)NS(=O)(=O)OC[C@H]1O[C@@H](n2cnc3c(N)ncnc32)[C@H](O)[C@@H]1O` [acetyl-AMS] displayed an IC50 of over 400 µM.
With `CC(=O)O[C@@H]1[C@H](OC(C)=O)[C@@H](COS(=O)(=O)NC(=O)c2ccccc2O)O[C@H]1n1ccc2ccccc21` [2′,3′-diacetylsalicyl-IRMS], the IC50 at YbtE [1] (IC50) was 3.9 µM; in the data set on Y. pestis KIM6-2082.1+ (Yersinia pestis) it was over 200 µM; in the data set on M. tuberculosis H37Rv (setting [7]) it was over 200 µM. Besides, the MIC90 with Y. pestis KIM6-2082.1+ (Yersinia pestis) and with M. tuberculosis H37Rv (setting [7]) was over 200 µM each time.
Turning to `Nc1ncnc2c1ncn2[C@@H]1O[C@H](COS(=O)(=O)NC(=O)c2ccccc2O)[C@@H](O)[C@H]1O` [salicyl-AMS, 5′-O—[N-(salicyl)sulfamoyl]-adenosine], the IC50 on YbtE [2] is 0.01 to 0.015 µM; on YbtE [2] (read-out: IC50, inhibition of adenylation activity) it was 0.0147 ± 0.002 µM; against YbtE [1] (IC50) it was 0.0145 µM and 0.009 µM; at YbtE [1] (read-out: IC50), 0.0479 µM; in the data set with Y. pestis KIM6-2082.1+ (Yersinia pestis, read-out: IC50, bacterial growth in iron-limiting media) it was 25 to 52 µM; in the data set with Y. pestis KIM6-2082.1+ (Yersinia pestis, read-out: IC50, growth inhibition) it was about 50 µM. Moreover, in the data set with Y. pestis KIM6-2082.1+ (read-out: IC50, growth inhibition), the IC50 stood at 51.2 ± 4.7 µM. Further, the Kd at YbtE [2] was at most 0.001 µM. In addition, the Ki on YbtE [2] stood at 0.00035 ± 0.00027 µM; at YbtE [2] (read-out: Ki (non-competitive with respect to salicylate)) it was 0.00108 ± 0.00098 µM. For the same compound, the “slope of IC50 versus YbtE concentration” value on YbtE [2] is 0.43. Moreover, the “slope of IC50 versus YbtE concentration, corrected” value on YbtE [2] is reported as 0.52. Also, in [4], the MBT production entry is recorded as “virtually undetectable”. Besides, in the data set with Y. pestis KIM6-2082.1+, the activity on growth entry is “not active”. In addition, the MIC was determined as 96.7 µM (≈ 45.1 µg/mL) in the data set on Y. pestis KIM6-2082.1+ (Yersinia pestis, read-out: MIC95, growth inhibition) and 268 µM (≈ 125 µg/mL) with M. tuberculosis H37Rv (Mycobacterium tuberculosis, H37RV, read-out: MIC95, growth inhibition). Also, the “increase of IC50, iron-supplemented vs iron-deficient” value with M. tuberculosis H37Rv was determined as 18 fold. The “isotopically stable in D2O” value in [5] was at least 54 days.
With `CC(=O)O[C@@H]1[C@H](OC(C)=O)[C@@H](COS(=O)(=O)NC(=O)c2ccccc2O)O[C@H]1n1cnc2c(N)ncnc21` [2′,3′-diacetyl-salicyl-AMS], the MIC90 with M. tuberculosis H37Rv (setting [7]) was over 200 µM.
`Cc1cccc(O)c1C(=O)NS(=O)(=O)OC[C@H]1O[C@@H](n2cnc3c(N)ncnc32)[C@H](O)[C@@H]1O` [6-methylsalicyl-AMS]: the IC50 against YbtE [1] (IC50) turned out to be 0.023 µM.
Take `COc1ccccc1C(=O)NS(=O)(=O)OC[C@H]1O[C@@H](n2cnc3c(N)ncnc32)[C@H](O)[C@@H]1O` [2-methoxybenzoyl-AMS]: on YbtE [1] (IC50), the IC50 was > 0.08 µM and 0.065 µM. In the data set on M. tuberculosis H37Rv (setting [7]), the IC50 was over 200 µM and the MIC90 is over 200 µM.
Turning to `Nc1ncnc2c1ncn2[C@@H]1O[C@H](COS(=O)(=O)NC(=O)c2ccc(O)cc2)[C@@H](O)[C@H]1O` [4-hydroxybenzoyl-AMS], the IC50 was > 0.08 µM and 6 µM at YbtE [1] (IC50); 110 µM in the data set with M. tuberculosis H37Rv; over 200 µM with M. tuberculosis H37Rv (setting [7]). The MIC90 in the data set with M. tuberculosis H37Rv (setting [7]) was over 200 µM.
For the compound `[H]/N=C(/N)N[C@H]1[C@H](O)[C@@H](O)[C@H](O[C@@H]2O[C@@H](C)[C@](O)(C=O)[C@H]2O[C@@H]2O[C@@H](CO)[C@H](O)[C@@H](O)[C@@H]2NC)[C@@H](N/C(N)=N\[H])[C@@H]1O` [streptomycin], the MIC in the data set on 92 Y. pestis strains is 2.6 to 6.9 µM; in data set [6] it was 0.4 to 1.7 µM.
